Read-outs that look alike come from different tables or passages of the source.
Tests used:
Format in all cases: biochemical
[1] = target: T1, succinate cytochrome c reductase (SDH+CIII) (Botrytis cinerea, UniProt A0A384J5E4+D2IH01+D2IH03); experiment: SCCR activity, Botrytis cinerea mitochondria
T1 sequence (A0A384J5E4 30-300): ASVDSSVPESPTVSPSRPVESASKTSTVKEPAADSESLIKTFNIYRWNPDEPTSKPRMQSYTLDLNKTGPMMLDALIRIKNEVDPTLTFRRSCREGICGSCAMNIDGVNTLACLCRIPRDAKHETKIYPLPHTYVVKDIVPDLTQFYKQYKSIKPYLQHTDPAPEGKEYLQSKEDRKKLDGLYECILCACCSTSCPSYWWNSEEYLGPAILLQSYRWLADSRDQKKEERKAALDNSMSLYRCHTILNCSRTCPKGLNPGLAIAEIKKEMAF
T1 sequence (D2IH03 46-189): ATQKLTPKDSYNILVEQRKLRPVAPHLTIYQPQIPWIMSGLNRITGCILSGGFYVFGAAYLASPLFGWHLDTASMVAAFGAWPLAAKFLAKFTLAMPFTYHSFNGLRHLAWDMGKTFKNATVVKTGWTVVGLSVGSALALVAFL
T1 sequence (D2IH01 64-192): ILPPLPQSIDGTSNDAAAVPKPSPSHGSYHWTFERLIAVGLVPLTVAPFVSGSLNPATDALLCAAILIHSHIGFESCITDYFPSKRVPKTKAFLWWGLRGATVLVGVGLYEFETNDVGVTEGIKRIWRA
Method: (§1) The mixed population of B. cinerea fungi used in this study was kindly provided by Dr. Joelle Dupont (Museum National d’Histoire Naturelle, Paris, France). Conidia from Botrytis cinerea were obtained from 15–30 d cultures grown on malt medium agar plates. Mycelial colonies were prepared by seeding conidia from 10 colonies in liquid medium (10 g of glucose, 2 g of KH2PO4, 0.5 g of MgSO47H2O, 1 g of (NH4)2SO4, 2 g of yeast extract and deionized water up to 1 l, pH 6.2). Incubation was performed at 23°C until hyphae totally covered the surface of the bottle. The hyphae (9-cm-diameter disks) were harvested, washed twice with refrigerated distilled water and finally with mitochondria extraction medium containing 20 mM Tris (pH 7.2), 0.25 M sucrose, 40 mM KCl, 2 mM EGTA, 1 mg/ml BSA, and no cysteine. The hyphae were suspended in 150 ml of extraction medium, cut in small pieces (1 cm^2) and then disrupted at high speed for 1×2 sec and at low speed for 2×3 sec using a MultiMoulinex mixer (Moulinex, France). The suspension of disrupted hyphae was then filtered through two layers of nylon cloth (clearance 150 μm). The cloth was washed with 50 ml of extraction medium. After low-speed centrifugation (700 g for 15 min), the mitochondria were collected at 10,000 g for 20 min. The pellet was suspended in 250 μl of extraction medium, aliquoted (± 30 μl) and kept frozen at -80°C.
(§2) RC enzyme activities were spectrophotometrically measured using a pseudo-double-wavelength spectrophotometer (Cary 60, Agilent). Malonate-sensitive succinate quinone dichlorophenolindophenol (DCPIP) reductase (SQDR), as an indicator of the activity of the isolated SDH enzyme (isolated CII), and glycerol-3-phosphate quinone DCPIP reductase (GQDR), as a measure of the activity of the isolated glycerol-3-phosphate dehydrogenase (G3PDH), were assayed as previously described. […] With this aim, we measured the malonate-sensitive succinate cytochrome c reductase (SDH+CIII), glycerol-3-phosphate cytochrome c reductase (G3PDH+CIII) and antimycin-sensitive quinol cytochrome c reductase (CIII) as previously described.
(§3) The effects of eight different SDHIs (up to 500 μM; S2 Fig) were determined on four different biological materials. Because IC50 are known to be affected by the actual absolute activity of the tested enzyme, these IC50 were quantified using similar levels of SDH enzyme activity during the assay. IC50 values were determined using the AAT Bioquest IC50 calculator tool (https://www.aatbio.com/tools/ic50-calculator).

[2] = target: T2, glycerol-3-phosphate cytochrome c reductase (G3PDH+CIII) (Homo sapiens, UniProt P00156); experiment: Glycerol-3-phosphate cytochrome c reductase (GCCR) activity, freeze-thawed HEK cells
T2 construct: the pellets were permeabilized by two freeze-thaw cycles before enzyme assays; endogenous in cells; host or cells: HEK293, freeze-thawed cell pellets
Method: The cells were grown in T75 flasks using 10 ml Dulbecco’s modified Eagle's minimal essential medium (DMEM) either containing 1 or 4.5 g/l glucose, 4 mM glutamine (glutamax; Gibco Thermo Fisher Scientific, MA), 2 mM pyruvate and 200 μM uridine (permissive medium, thereafter referred as GlucoMax) or lacking glucose, pyruvate and uridine but containing 4 mM glutamine (nonpermissive medium, thereafter referred as MitoMax; S1 Table). All media were supplemented with 10% fetal calf serum and 100 U/mL each penicillin and streptomycin. HEK293 human embryonic kidney cells were cultured in DMEM containing 4.5 g/L glucose, 4 mM glutamine, 10% fetal calf serum, 200 μM uridine, 2 mM pyruvate, and 100 U/mL each penicillin and streptomycin [9]. Cell pellets (1,500 g for 5 min) were kept frozen (-80°C), and for biochemical studies, the pellets were permeabilized by two freeze-thaw cycles before enzyme assays.
RC enzyme activities were spectrophotometrically measured using a pseudo-double-wavelength spectrophotometer (Cary 60, Agilent). Malonate-sensitive succinate quinone dichlorophenolindophenol (DCPIP) reductase (SQDR), as an indicator of the activity of the isolated SDH enzyme (isolated CII), and glycerol-3-phosphate quinone DCPIP reductase (GQDR), as a measure of the activity of the isolated glycerol-3-phosphate dehydrogenase (G3PDH), were assayed as previously described. To study the effect of SDHIs on the RC, we had to take into consideration the fact that these inhibitors act through binding to quinone-binding sites in the RC. Accordingly, we observed that the extent of the inhibitory effects of these substances varies with the addition of exogenous quinones (Fig 1). […] With this aim, we measured the malonate-sensitive succinate cytochrome c reductase (SDH+CIII), glycerol-3-phosphate cytochrome c reductase (G3PDH+CIII) and antimycin-sensitive quinol cytochrome c reductase (CIII) as previously described.
as §3

[3] = target: T3, quinol cytochrome c reductase (CIII) (Botrytis cinerea, UniProt Q18ND9); experiment: QCCR activity, Botrytis cinerea mitochondria
T3 sequence (Q18ND9 1-391): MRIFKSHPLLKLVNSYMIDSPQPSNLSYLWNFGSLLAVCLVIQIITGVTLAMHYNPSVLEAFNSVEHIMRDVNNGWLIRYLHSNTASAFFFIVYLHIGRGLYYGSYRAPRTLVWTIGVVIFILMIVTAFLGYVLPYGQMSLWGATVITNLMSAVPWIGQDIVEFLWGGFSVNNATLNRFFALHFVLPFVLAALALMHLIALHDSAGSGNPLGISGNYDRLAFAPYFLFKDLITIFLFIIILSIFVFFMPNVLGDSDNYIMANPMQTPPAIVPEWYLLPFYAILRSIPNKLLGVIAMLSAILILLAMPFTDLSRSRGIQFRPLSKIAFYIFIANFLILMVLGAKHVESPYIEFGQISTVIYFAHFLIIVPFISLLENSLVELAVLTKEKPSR
Method: as §1, §2, §3

[4] = Botrytis cinerea mitochondria, read-out: IC50 SCCR
[5] = Homo sapiens, freeze-thawed HEK cells, read-out: IC50 GCCR
[6] = CIII values only indicative, read-out: IC50 QCCR
[7] = read-out: IC50 QCCR, CIII values only indicative

| Structure (SMILES) | IC50 [1, 4] | IC50 [2, 5] | IC50 [3, 6] | IC50 [1] | IC50 [2] | IC50 [3, 7] |
| --- | --- | --- | --- | --- | --- | --- |
| Cn1cc(C(=O)Nc2ccc(F)cc2-c2ccc(Cl)c(Cl)c2)c(C(F)F)n1 [Bixafen, bixafen] | 0.07 µM | 21.1 µM | 22.2 µM |  |  |  |
| Cn1cc(C(=O)Nc2ccccc2-c2cc(F)c(F)c(F)c2)c(C(F)F)n1 [Fluxapyroxad, fluxapyroxad] | 0.095 µM | > 500 µM | 67 µM |  |  |  |
| Cc1nn(C)c(F)c1C(=O)Nc1ccccc1C(C)CC(C)C (stereo not drawn) [Penflufen, penflufen] | 0.13 µM | > 500 µM | 433 µM |  |  |  |
| O=C(Nc1ccccc1-c1ccc(Cl)cc1)c1cccnc1Cl [Boscalid, boscalid] |  |  |  | 0.8 µM | > 500 µM | > 500 µM |
| CC(C)C1C2CCC1c1c(NC(=O)c3cn(C)nc3C(F)F)cccc12 (stereo not drawn) [Isopyrazam, isopyrazam] | 0.023 µM | 51.3 µM | 14.2 µM |  |  |  |
| CC(C)Oc1cccc(NC(=O)c2ccccc2C(F)(F)F)c1 [Flutolanil, flutolanil] |  | > 500 µM |  | 8.6 µM |  | > 500 µM |
| CC(C)CC(C)c1sccc1NC(=O)c1cn(C)nc1C(F)(F)F (stereo not drawn) [Penthiopyrad, penthiopyrad] |  |  |  | 0.045 µM | 211 µM | 105 µM |

Reference: article PMC6837341, “Evolutionarily conserved susceptibility of the mitochondrial respiratory chain to SDHI pesticides and its consequence on the impact of SDHIs on human cultured cells” (PLoS ONE, 2019)
